From article PMC3715890, “A Cyclic Peptide Inhibitor of HIF-1 Heterodimerization That Inhibits Hypoxia Signaling in Cancer Cells” (Journal of the American Chemical Society, 2013)
“Also recorded” adds a separate entry of the source.

Key:
MCF-7 cells [1] = details: MCF-7, 100 μM, hypoxia 24 h
[2] = target: T1, His-HIF-1α1–350 with GST-HIF-1β1–474 (Homo sapiens, UniProt Q16665); assay: ELISA of HIF-1 dimerization; assay type: biochemical; details: 10 nM to 500 μM, pH 7.5, 30 min preincubation, room temperature, absorbance 450 nm, read-out: IC50, disruption of HIF-1 dimerization
T1 construct: heterodimerization of His-HIF-1α1–350 with GST-HIF-1β1–474 analyzed by ELISA; made in house; host or cells: E. coli BL21(DE3)
From the text: We next probed the effect of cyclo-CLLFVY on the interaction of HIF-1α with HIF-1β in vitro. […] Unfortunately, the positively charged Tat-tag of P1 is incompatible with EMSA (interferes with the bandshift of DNA). […] To determine the HIF-1-specificity of cyclo-CLLFVY, we assessed its ability to disrupt HIF-2 dimerization by ELISA. Recombinant His-HIF-2α1–351 was produced and purified, and shown to form functional heterodimers with GST-HIF-1β1–474 by EMSA (Figure S5B).
HIF-1β1-474, *please note that isoform 3 of HIF-1β was used). The standard protocol for protein expression was followed. Briefly, a 1 % culture in LB was incubated at 37 °C with shaking until OD600 of 0.6 was reached. 0.1 mM IPTG was added and the liquid culture incubated with shaking at 18 °C overnight. Cell pellets were suspended in MHW buffer9 (approximately 4 ml buffer per 1 g cell pellet). Lysozyme (100 µg/ml) was added to the lysate and the solution was incubated with shaking for 20 min at 5 °C. […]
glycerol) was added to individual wells of a Pierce Ni2+-coated 96-well plate (Thermo Scientific, catalogue no. […] The stated quantity of inhibitor (P1 or P2) was added as a solution in 100 µL of buffer to the desired wells, and the plate incubated at room temperature for 30 minutes. […]

MCF-7 cells [3] = assay: CyQUANT cell proliferation assay, MCF-7; assay type: cell-based; details: 100 μM, 72 h
Experimental: Sulforhodamine B cytotoxicity assay […]
incubated in hypoxia for 24h.
O.D. value of the experimental set.
CyQUANT cell proliferation assay
The cells were incubated for 5 hours and then treated with Tamoxifen or P1. After 24, 48 or 72 hours, the media was […]
C35006) following the manufacturers instructions. Fluorescence measurements were […]
Workman, P.; Ashcroft, M. Cancer Res 2005, 65, 4918.

U2OS cells = details: 100 μM, hypoxia 24 h
HIF-1 = details: cited from earlier work
From the text: (§1) Inhibition of HIF-1 has long been known to hold much potential for cancer therapy;[14] there are multiple possible points for therapeutic intervention in the hypoxia response network, and molecules that inhibit various components of this diverse pathway have been reported,[15]−[22] but the absolute requirement for the dimerization of HIF-1α and HIF-1β for DNA binding and transcription activity of the HIF-1 complex makes this protein–protein interaction a seemingly optimal point of interception. Several high-throughput screens have been conducted in the effort to identify HIF-1 inhibitors,[15], ...

HIF-2 = details: cited from earlier work
From the text: as §1

HIF-2α PAS-B = details: cited from earlier work
From the text: (§2) A homology model of HIF-1α PAS-B mapped onto the NMR s ...

PAS-B domain of HIF-1α = target: T2, PAS-B domain of HIF-1α (Homo sapiens, UniProt Q16665); details: cited from earlier work
T2 construct: Per-ARNT-Sim-B (PAS-B, amino acids 235–350) domains; His (N); made in house; host or cells: E. coli BL21(DE3)
From the text: as §2

| Compound | SRB cytotoxicity (MCF-7 cells [1]) | IC50 [2] [nM] | viability / proliferation of MCF-7 cells (MCF-7 cells [3]) | SRB cytotoxicity (U2OS cells) | inhibition of HIF-1 (HIF-1) | inhibition of HIF-2 (HIF-2) | targeting of PAS-B domain of HIF-2α (HIF-2α PAS-B) | targeting of PAS-B domain of HIF-1α (PAS-B domain of HIF-1α) |
| --- | --- | --- | --- | --- | --- | --- | --- | --- |
| CC(C)C[C@@H]1NC(=O)[C@H](CSSC[C@H](N)C(=O)NCC(=O)N[C@@H](CCCNC(=N)N)C(=O)N[C@@H](CCCCN)C(=O)N[C@@H](CCCCN)C(=O)N[C@@H](CCCNC(=N)N)C(=O)N[C@@H](CCCNC(=N)N)C(=O)N[C@@H](CCC(N)=O)C(=O)N[C@@H](CCCNC(=N)N)C(=O)N[C@@H](CCCNC(=N)N)C(=O)N[C@@H](CCCNC(=N)N)C(=O)N2CCC[C@H]2C(=O)N2CCC[C@H]2C(=O)N[C@@H](CCC(N)=O)C(=O)O)NC(=O)[C@H](Cc2ccc(O)cc2)NC(=O)[C@H](C(C)C)NC(=O)[C@H](Cc2ccccc2)NC(=O)[C@H](CC(C)C)NC1=O [P1, Tat-cyclo-CLLFVY] | not cytotoxic | 1300 | did not affect the viability of MCF-7 cells; also recorded: no effect on MCF-7 proliferation | not cytotoxic | – | – | – | – |
| acriflavine | – | – | – | – | nonselectively inhibits both HIF-1 and HIF-2 | nonselectively inhibits both HIF-1 and HIF-2 | targeted | targeted |
